# What was measured:
# [1] = system: tumour-bearing mice (Murine C-26 adenocarcinoma cells); test: Bone mineral density in C-26 tumour-bearing mice on experimental diets (experiment A); format: in vivo; conditions: diet added to AIN93-M high protein, day 20, compared to TB on control diet (FIG. 1A)
# [2] = system: tumour-bearing mice (Murine C-26 adenocarcinoma cells); test: Plasma calcium levels in C-26 tumour-bearing mice, single or combined ingredients (experiment A); format: in vivo; conditions: diet added to AIN93-M high protein, day 20, compared to TB on control diet (FIG. 1B)
structure (smiles),measurement,setting,value
CC(C)C[C@H](N)C(=O)O [leucine],bone mineral density,[1],did not result in significant changes compared to TB
same,plasma calcium levels,[2],no effect

# Source: US9867796B2, “Combination of a leucine source and an omega-3 unsaturated fatty acid source for use in the treatment of hypercalcaemia” (N.V. Nutricia, priority 2009, dated 2018)
